Test system: P. falciparum 3D7 growth, pLDH absorbance
Experiment: blood-stage malaria parasite growth potency – strain 3D7, dose response (AID 2305)

Row | Compound | IC50
1 | CC(COc1ccc2c(c1)OC(C)(C)CC2c1ccccc1)NCC(O)c1cccc(Cl)c1 (stereo not given) | 750 nM
2 | FC(F)(F)COc1ccc2ccccc2c1CCNCCCCNCCc1c(OCC(F)(F)F)ccc2ccccc12 | 430 nM
3 | CCOc1ccc(-c2nonc2NC(=O)c2cccs2)cc1OCC | 760 nM
4 | O=C(/C=C/c1ccc(Cl)c(Cl)c1)N1CCC(CCN2CCC(c3c[nH]c4cc5c(cc34)OCO5)CC2)CC1 | 730 nM
5 | CC(C)c1nc2c(N)nc(N)nc2nc1N | 1310 nM
6 | CC(C)c1ccc(NC(=O)N[C@H]2CCN(CCCCCNC(=O)/C=C/c3ccc(Cl)c(Cl)c3)C2)cc1 | 710 nM
7 | CCOc1ccc(S(=O)(=O)N(C)c2ccc(OCC(=O)Nc3nccs3)cc2)cc1 | 960 nM
8 | COc1ccc(NC(=O)Nc2ccc(-c3ccccc3)cc2)cc1Cn1cnc(N2CCCNCC2)cc1=O | 760 nM
9 | Oc1ccc(Cl)cc1Nc1nc(C(F)(F)F)nc2ccccc12 | 940 nM
10 | COc1cccc2c(NN=Cc3ccc(Cl)cc3)ccnc12 | 810 nM
11 | Cc1ccnc2nc(C(=O)Nc3cc(C(F)(F)F)ccc3N3CCCCC3)nn12 | 60 nM
12 | Cc1cccc2[nH]c(-c3ccc(-c4cccc(CN5CCC(N)C5)c4)s3)nc12 (stereo not given) | 770 nM
13 | COc1cc(NC(=O)Nc2ccc(Br)cc2C(=O)Nc2ccc(Br)cc2)cc(OC)c1OC | 760 nM
14 | CCOc1ccc2c(c1)C(C)(c1ccc3c(c1)C(C)CC(C)(C)N3)CC(C)(C)N2 (stereo not given) | 800 nM
15 | CCc1c(C(=O)NC2CCC(N3CCC(c4ccccc4C)CC3)CC2)[nH]c2ccc(Br)cc12 (stereo not given) | 930 nM
16 | Cn1cncc1C(=O)Nc1cccc(-c2ccc(-c3nc4ccccc4[nH]3)s2)c1 | 800 nM
17 | CCOc1ccc(-c2nc3ccc(-c4nc5ccc(N6CCN(C)CC6)cc5[nH]4)cc3[nH]2)cc1 | 110 nM
18 | Clc1ccc(Cc2nc3ccccc3[nH]2)cc1Cl | 250 nM
19 | CCCN=CNc1cc(-c2csc(N=C(N)N)n2)cc([N+](=O)[O-])c1 | 1740 nM
20 | CC(C)CNCc1ccc(-c2ccc(CN(C(=O)NCCc3ccccc3)C3CCN(Cc4ccccc4)CC3)cc2)cc1 | 700 nM

Row | Compound | IC50
21 | Cc1cccc2[nH]c(-c3ccc(-c4cccc(NC(=O)C(C)CN(C)C)c4)cc3)nc12 (stereo not given) | 650 nM
22 | CC(C)(C)C1CCc2nc(N)nc(N)c2C1 (stereo not given) | 10 nM
23 | Cc1cc(N[C@@H](Cc2ccccc2)C(=O)NCCCOC(C)C)nc(NCCc2ccc(F)cc2)n1 | 930 nM
24 | CC(=O)c1cc(N2CCOCC2)ccc1N | 910 nM
25 | NCc1ccc(CNCc2cccc(-c3cccc(-c4nc5ccccc5[nH]4)c3)c2)cc1 | 490 nM
26 | COc1ccc(N2CCN(CCCCNC(=O)c3ccc(NC(=O)c4ccc(Cl)cc4)cc3)CC2)c(OC)c1 | 950 nM
27 | CCCCC(N)COc1cccc2c(-c3ccncc3)c(-c3cccc(NC(=O)Nc4ccccc4)c3)nn12 (stereo not given) | 880 nM
28 | Cc1ncccc1C(=O)Nc1ccc(-c2cccc(-c3nc4c(C)cccc4[nH]3)c2)cc1 | 730 nM
29 | O=C(Nc1cccc(CN2CCCN(Cc3ccc(O)cc3)CC2)c1)c1ccc(Br)cc1 | 800 nM
30 | CC(C)(CNC(=O)[C@@H]1CCCN(CCOc2ccc(F)c(F)c2)C1)c1nc(-c2ccc(Cl)c(O)c2)c(-c2ccncc2)[nH]1 | 720 nM
31 | Cc1cccc2[nH]c(-c3ccc(-c4ccc(CNCC(C)C)cc4)cc3)nc12 | 410 nM
32 | O=C(N[C@@H](Cc1ccccc1)[C@H](O)CNC1CCOCC1)c1cc(C2CCCC2)cc(N2CCCCS2(=O)=O)c1 | 200 nM
33 | Cc1nnc(-c2ccc3ccccc3c2)c2cn(-c3cccc([N+](=O)[O-])c3)nc12 | 990 nM
34 | CN(C)CCC1CCN(CCS(=O)(=O)c2cccc(Nc3ccc(-c4cccc(F)c4)cn3)c2)CC1 | 1070 nM
35 | c1ccc(CC2=NCCN2)cc1 | 190 nM
36 | CCCC(C)Nc1nc(C)cc(N[C@@H](CC(C)C)C(=O)NCc2ccc(C)cc2)n1 (stereo not given in full) | 1010 nM
37 | O=S(=O)(NCCN1CCCC1)c1ccc(-c2cccc(CNCCc3cccs3)c2)s1 | 700 nM
38 | Oc1ccc(CCNCCCCCCNCCc2ccc(Br)cc2)cc1O | 1020 nM
39 | O=C(Nc1ccc2ccccc2c1)N1CCC(NCc2cccc([N+](=O)[O-])c2)CC1 | 860 nM
40 | COc1ccc2c(NN=Cc3ccccc3[N+](=O)[O-])cc(C)nc2c1 | 720 nM

— PubChem BioAssay AID2305 (GlaxoSmithKline (GSK), 2010)
